{"source": "patent US8158577B2", "about": "“Modulation of cartilage homeostasis by active domains of cell binding extracellular matrix molecules” (priority 2004, dated 2012)", "key": {"[1]": {"system": "K105 cells", "test": "Effect on K105 cells already adherent to chondroadherin, light microscopy time study (FIG. 7, 9, 10)", "type": "cell-based, human", "settings": "for spreading, migration and aggregation of k105 cells adherent to chondroadherin: peptide 250 μg/ml added after 30 min adhesion, light microscopy after 1, 3 and 20 hours; for spreading and aggregation or detaching of k105 cells adherent to chondroadherin (FIG. 10): peptide, anti β1 antibody or 5 mM EDTA added after 30 min, light microscopy after 1 and 3 hours", "method": "(§1) To test cell binding, the chondrosarcoma cells or bovine chondrocytes were suspended in PBS containing 0.1% BSA, 25 U/ml collagenase and added to the wells (50,000/well), in the absence or presence of various peptide pools or the synthetic peptides (200, 100, 50, 25, 12.5 μg/ml). Non-adherent cells were removed after 1 hour and adhesion was determined by measuring lysosomal N-acetylglucosaminidase (12). Adhesion and spreading was visualized by light microscopy. In the time studies, k105 cells were allowed to adhere for 30 minutes, unbound cells were removed and medium without serum supplemented with or without peptides (250 μg/ml), β1 integrin antibody (clone P4C10, Gibco BRL), EDTA (5 mM) was added. Cell morphology was visualized by light microscopy after 1, 3 and 20 hours.\n(§2) Tissue culture dishes were coated with 5 μg/ml chondroadherin expressed in E. coli and blocked for non-specific binding with BSA. The k105 cells were suspended in PBS containing 0.1% BSA, and added to the wells (50,000/well). Nonadherent cells were removed after 30 min by washing, plain medium without serum with or without peptides (250 μg/ml) was added and bound cells were visualized by light microscopy after 1, 3 and 20 hours.\nas §2, with “The” for “The k105”, “hours. […] The activity for integrin binding is located in the C-terminal eight residues of the sequence involving the WLEAK (SEQ ID No. 1) sequence.” for “hours.”\nas §2, with “washing, peptide, anti β1 antibody, 5 mM EDTA or” for “washing,”, “serum” for “serum with or without peptides (250 μg/ml)”, “1 and” for “1,”, “3” for “3 and 20”"}, "[2]": {"system": "K105 cells", "test": "Adhesion of K105 cells to chondroadherin in the presence of synthetic peptide (FIG. 3, 5A-5B, 13)", "type": "cell-based, human", "settings": "1 hour at 37° C.; for adhesion of k105 cells to chondroadherin in the presence of peptide: peptide 200, 100, 50, 25, 12.5 μg/ml", "method": "Human cells (K9) originating from a human chondrosarcoma were a kind gift from Drs. Sven Inerot and Anders Lindahl, The Salgrenska University Hospital Gothenburg, Sweden. The K9 cells were cultured in Dulbeccos Modified Eagle Medium: Nutrient Mixture F12 (DMEM/F12 1:1) with GLUTAMAX I, supplemented with 10% fetal calf serum, 25 μg/ml ascorbic acid, 50 IU of penicillin and 50 μg/ml streptomycin (Life Technologies, Inc.). A different human cells line (K105) originating from a human chondrosarcoma was a kind gift from Dr. Sven Inerot, The Salgrenska University Hospital, Gothenburg, Sweden. The K105 cells were cultured in a mix of 40% Dulbeccos Modified Eagle Medium, 40% Minimum Essential Media (MEM) alpha Medium, 10% Nutrient Mixture F1 supplemented with 100 nM hydrocortisone, 100 ng/ml insulin, 10% fetal calf serum, 25 μg/ml ascorbic acid, 50 IU of penicillin and 50 μg/ml streptomycin (Life Technologies, Inc.). To harvest cells, culture dishes were rinsed three times with Ca^2+/Mg^2+-free PBS and the cells were incubated with 0.5% trypsin and 1 mM EDTA for 5 min. Detached cells were suspended in PBS containing 1 mg/ml trypsin inhibitor (Sigma) and then washed in PBS. To remove membrane-bound collagens the cells were treated with collagenase 100 U/ml (CLSPA; Worthington Biochemical Corp., Lakewood, N.J.) in PBS, 30 min. 37° C. and then washed in PBS.\n(§3) Tissue culture 48-wells dishes (Nunclon, Nunc, Denmark) were coated overnight with 5 μg/ml chondroadherin in 4M Guanidine-HCl, 50 mM sodium acetate, pH 5.8, or for native protein in PBS. Alternatively coating was with 5 μg/ml collagen type II in PBS followed by after-coating with 0.5% BSA in PBS for 3 hours. Collagen type II was isolated from bovine nasal cartilage by pepsin digestion (11). Bacterially expressed chondroadherin was isolated as described above. Recombinant chondroadherin expressed in EBNA cell was cloned and purified as described elsewhere (8).\nas §1\nStudy design: Tissue culture dishes (48-wells) were coated with 5 μg/ml chondroadherin expressed in E. coli and blocked for non-specific binding with BSA. […] were suspended in PBS containing 0.1% BSA, 25 U/ml collagenase and added to the wells (50,000/well) in the presence of synthetic peptide to be tested and allowed to adhere for 1 hour at 37° C. Nonadherent cells were removed by washing, and adhesion was determined by analyzing lysosomal hexosaminidase.\nA 12-mer peptide (1947.01) plus an N-terminal cysteine (CQLRGLRRWLEAK) (SEQ ID NO. 3) representing the candidate sequence identified by mass spectrometry were synthesized and its ability to inhibit cell adhesion was determined. Tissue culture dishes were coated with 5 μg/ml chondroadherin expressed in E. coli and blocked for non-specific binding with BSA. The cells were suspended in PBS containing 0.1% BSA, 25 U/ml collagenase and added to the wells (50,000/well) in the presence of synthetic peptide (200, 100, 50, 25, 12.5 μg/ml) and allowed to adhere for 1 hour at 37° C. Nonadherent cells were removed by washing, and adhesion was determined by analyzing lysosomal hexosaminidase. […]"}, "[3]": {"system": "K105 cells", "test": "Adhesion of K105 cells to collagen type II in the presence of synthetic peptide (FIG. 5C-5D)", "type": "cell-based, human", "settings": "peptide 250 μg/ml, 1 hour at 37° C.", "method": "as §3\n(§4) To test cell binding, the chondrosarcoma cells or bovine chondrocytes were suspended in PBS containing 0.1% BSA, 25 U/ml collagenase and added to the wells (50,000/well), in the absence or presence of various peptide pools or the synthetic peptides (200, 100, 50, 25, 12.5 μg/ml). Non-adherent cells were removed after 1 hour and adhesion was determined by measuring lysosomal N-acetylglucosaminidase (12). Adhesion and spreading was visualized by light microscopy. […]\nTissue culture dishes were coated with 5 μg/ml chondroadherin expressed in E. coli or collagen type II and blocked for non-specific binding with BSA. […] Spreading was visualized by light microscopy, and adhesion was determined by analyzing lysosomal hexosaminidase. Adhesion is expressed as number of cells where the data represent the average of two wells. […]"}, "[4]": {"system": "bovine chondrocytes", "test": "Adhesion of bovine chondrocytes to human chondroadherin with or without cell binding peptides (FIG. 6)", "type": "cell-based", "settings": "peptide 250 μg/ml, 1 hour at 37° C., 100,000 cells/well", "method": "Bovine chondrocytes were isolated by collagenase (CLS1; Worthington Biochemical Corp., Lakewood, N.J.) digestion of articular cartilage from 4-6 month old calves as described (10). Briefly, cartilage slices were digested for 16 hours with collagenase in EBSS (Earle's balanced salt solution, GIBCO BRL Gaithersburg, Md.). The cells were filtered through a 100 μm nylon filter, washed three times in PBS containing 0.2% BSA (SERVA).\nas §4\nTissue culture dishes were coated with 5 μg/ml chondroadherin expressed in E. coli or collagen type II and blocked for non-specific binding with BSA. […] Adhesion was determined by analyzing lysosomal hexosaminidase. Adhesion is expressed as number of cells, 100,000 cells/well was seeded. […]"}, "[5]": {"system": "K105 cells", "test": "Adhesion of K105 cells to the coated cell binding peptides (FIG. 8)", "type": "cell-based, human", "method": "Tissue culture dishes were coated with 33 μg/ml (20 µM) peptide solution. The cells (50,000/well) were suspended in PBS containing 0.1% BSA, 25 U/ml collagenase and added to the wells in the presence or absence of synthetic peptide (250 μg/ml) and allowed to adhere for 1 hour at 37° C. Nonadherent cells were removed by washing. Spreading was visualized by light microscopy."}}, "note": "Entries after “also recorded” stand apart in the source; their conditions may differ."}
{"molecule": "H-QLRGLRRWLEAK-OH (listed as Homo sapiens) [SEQ ID No. 3]", "values": [{"measurement": "spreading, migration and aggregation of k105 cells adherent to chondroadherin", "setting": "[1]", "value": "prevented spreading and induced cells to form aggregates"}]}
{"molecule": "O=C(O)CN(CCN(CC(=O)O)CC(=O)O)CC(=O)O", "note": "[EDTA, reference compound]", "values": [{"measurement": "spreading and aggregation or detaching of k105 cells adherent to chondroadherin (FIG. 10)", "setting": "[1]", "value": "cells detaching"}]}
{"molecule": "Ac-[CQLRGLRRWLEAKASRPDATC]-NH2 (Ac-CQLRGLRRWLEAKASRPDATC-NH2; also: cyclised (brackets), bond type not given here; listed as Homo sapiens) [SEQ ID No. 12]", "values": [{"measurement": "inhibitory effect on K105 cell adhesion to chondroadherin (Example II, FIG. 13)", "setting": "[2]", "value": "inhibitory effect"}]}
{"molecule": "H-LRRWLEAK-OH (listed as Homo sapiens) [SEQ ID No. 2]", "values": [{"measurement": "spreading, migration and aggregation of k105 cells adherent to chondroadherin", "setting": "[1]", "value": "prevented spreading and induced cells to form aggregate"}]}
{"molecule": "QLRGLRRW (listed as Homo sapiens)", "values": [{"measurement": "spreading, migration and aggregation of k105 cells adherent to chondroadherin", "setting": "[1]", "value": "no effect"}]}
{"molecule": "CQLRGLRRWLEAK (N-terminal cysteine; listed as Homo sapiens) [12-mer peptide plus an N-terminal cysteine]", "values": [{"measurement": "k105 cell adhesion to chondroadherin in the presence of peptide", "setting": "[2]; peptide 250 μg/ml", "value": "decreased"}, {"measurement": "adhesion of k105 cells to chondroadherin in the presence of peptide", "setting": "[2]", "value": "able to inhibit"}, {"measurement": "adhesion of k105 cells to chondroadherin in the presence of peptide", "setting": "[2]; listed as 12-mer peptide", "value": "decreased in a dose dependent manner"}, {"measurement": "k105 cell adhesion to collagen type II in the presence of peptide", "setting": "[3]", "value": "not significantly affected"}, {"measurement": "bovine chondrocyte adhesion to chondroadherin in the presence of peptide", "setting": "[4]", "value": "decreased"}, {"measurement": "spreading, migration and aggregation of k105 cells adherent to chondroadherin", "setting": "[1]", "value": "stimulated the cells to form aggregate; also recorded: prevented spreading and induced cells to form aggregate"}, {"measurement": "spreading and aggregation or detaching of k105 cells adherent to chondroadherin (FIG. 10)", "setting": "[1]", "value": "prevented spreading and the cells formed aggregate"}, {"measurement": "adhesion and shape of k105 cells plated on the peptide", "setting": "[5]; dishes coated with 33 μg/ml peptide, 1 hour at 37° C.", "value": "adhere and remain round"}, {"measurement": "inhibition of k105 adhesion to the coated peptide by the same peptide in solution", "setting": "[5]; peptide in solution 250 μg/ml", "value": "inhibited"}]}
